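Compound exposure: 48 hours, 5 concentrations, 96-well plates. Here, GI50 denotes the concentration required for 50% inhibition of growth. TGI: concentration producing complete growth inhibition.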
Experiments:
Assay in all cases: NCI anticancer screen, dose series, 48 h
MALME-3M melanoma = system: MALME-3M melanoma
KM12 colon = system: KM12 colon
RPMI-8226 leukemia = system: RPMI-8226 leukemia
SNB-19 CNS = system: SNB-19 CNS
MOLT-4 leukemia = system: MOLT-4 leukemia
SK-OV-3 ovarian = system: SK-OV-3 ovarian
TK-10 renal = system: TK-10 renal
SK-MEL-28 melanoma = system: SK-MEL-28 melanoma
SK-MEL-5 melanoma = system: SK-MEL-5 melanoma

Compound | TGI (MALME-3M melanoma) [µM] | TGI (KM12 colon) [µM] | TGI (RPMI-8226 leukemia) [µM] | TGI (SNB-19 CNS) [µM] | TGI (MOLT-4 leukemia) [µM] | TGI (SK-OV-3 ovarian) [µM] | TGI (TK-10 renal) [µM] | TGI (SK-MEL-28 melanoma) [µM] | TGI (SK-MEL-5 melanoma) [µM] | GI50 (SK-OV-3 ovarian) [nM] | GI50 (SK-MEL-5 melanoma) [nM] | GI50 (TK-10 renal) [µM] | GI50 (MALME-3M melanoma) [µM] | GI50 (KM12 colon) [µM]
O=C(Nc1nc2ccc([N+](=O)[O-])cc2s1)C(=O)C(C(=O)c1ccncc1)C1OC(=O)c2ccccc21 (stereo unspecified) | > 100 | > 100 | > 100 | > 100 | > 100 | – | – | – | – | – | – | – | – | –
O=C1C(=O)N(c2nccs2)C(=O)C(=O)C1c1nc2ccccc2s1 | > 100 | > 100 | > 100 | > 100 | – | > 100 | > 100 | > 100 | – | – | – | – | – | –
S=c1sc2cscc2s1 | 30.6 | 33.3 | > 100 | 46 | > 100 | 77.3 | 40.2 | 41.1 | 70.6 | – | – | – | – | –
O=C(NC1C2CC3CC(C2)CC1C3)/C(Cl)=C1/Sc2ccccc2NC1=O (stereo unspecified) | > 100 | > 100 | – | > 100 | > 100 | – | > 100 | > 100 | > 100 | – | – | – | – | –
OCC(O)C(O)C(O)c1nn(-c2ccccc2)c2nc3cc(Cl)c(Cl)cc3nc12 (stereo unspecified) | 77.7 | – | > 100 | > 100 | 87.6 | > 100 | > 100 | > 100 | – | – | – | – | – | –
CS(=O)(=O)N(CCC#N)c1ccc(C=O)cc1 | > 100 | > 100 | > 100 | > 100 | > 100 | > 100 | – | > 100 | > 100 | – | – | – | – | –
COc1ccc2c(CCNC(=O)/C=C/c3ccccc3)c(C(C)=O)[nH]c2c1[N+](=O)[O-] | – | > 100 | > 100 | > 100 | > 100 | – | – | > 100 | – | – | – | – | – | –
O=C(O)c1ccccc1N=Nc1ccc2oc(=O)c(C(=O)Nc3ccccc3)cc2c1 | 70.3 | > 100 | > 100 | > 100 | > 100 | > 100 | > 100 | > 100 | 76.8 | – | – | – | – | –
O=c1cccccc1[O-].O=c1cccccc1[O-].O=c1cccccc1[O-].[Ce+3] | 52.4 | > 100 | > 100 | > 100 | > 100 | 72.3 | 65.2 | – | 38.8 | – | – | – | – | –
Cc1ccccc1C(=O)Oc1ccc(OCc2ccccc2)cc1 | > 100 | > 100 | > 100 | > 100 | > 100 | > 100 | > 100 | > 100 | > 100 | – | – | – | – | –
CC1(C(=O)O)CCOc2ccccc21 (stereo unspecified) | > 100 | – | > 100 | > 100 | > 100 | – | > 100 | > 100 | > 100 | – | – | – | – | –
NCc1c(C(N)=O)ncn1Cc1ccccc1 | – | – | > 100 | > 100 | > 100 | > 100 | > 100 | > 100 | > 100 | – | – | – | – | –
CCOC(=O)C(C)(C)Oc1ccc2c(-c3ccc(Cl)cc3)c(-c3ccc(Cl)cc3)c(=O)oc2c1 | > 100 | – | > 100 | > 100 | > 100 | – | > 100 | > 100 | > 100 | – | – | – | – | –
CC(=O)[O-].[Zn].c1ccc(/C(=N\Nc2ccccn2)c2ccccn2)cc1 | 1.58 | – | 2.86 | 5.73 | 0.227 | 2.79 | 3.34 | – | 1.59 | 507 | 447 | – | – | –
COc1nc2c(nc(N)n2C2OCC(O)C(O)C2O)c(=O)n1C (stereo unspecified) | > 100 | > 100 | – | > 100 | > 100 | > 100 | > 100 | > 100 | > 100 | – | – | – | – | –
CCOC(=O)N1C(c2ccccc2)C=CC(c2ccccc2)N1C(=O)OCC (stereo unspecified) | > 100 | > 100 | > 100 | > 100 | – | – | > 100 | > 100 | > 100 | – | – | – | – | –
COc1cc(/C=C\c2ccc(Br)cc2)cc(OC)c1OC | 34.8 | > 100 | 27.6 | > 100 | 0.326 | > 100 | – | – | 0.109 | – | – | – | – | –
CCn1c(=O)c2ccccc2n2c(=O)c3cc4ccccc4cc3nc12 | > 100 | > 100 | > 100 | > 100 | > 100 | > 100 | > 100 | – | > 100 | – | – | – | – | –
CC(=O)OC1CCC2C(=CCC3C2(C)C(=O)CC2(C)C(C4(C)OC(C(C)C)=CC4=O)C(O)CC32C)C1(C)C (stereo unspecified) | 47.4 | > 10 | 56.7 | > 100 | > 100 | > 100 | – | – | 56.9 | – | – | – | – | –
N#Cc1ccc(Oc2cccc(Oc3ccccc3)c2)cc1C#N | > 100 | > 100 | – | > 100 | > 100 | > 100 | > 100 | > 100 | > 100 | > 100000 | – | > 100 | > 100 | > 100
O=C(N/C(=C\c1ccc(/C=C(\NC(=O)c2ccccc2)c2nc3ccccc3s2)cc1)c1nc2ccccc2s1)c1ccccc1 | 25.2 | 22.6 | 37.3 | 14.5 | 26.7 | – | 25.2 | 24.2 | 17.8 | – | – | – | – | –

From PubChem BioAssay (NCI)
